Assay [1] deals with IMQ-induced psoriasis-like inflammation. Briefly: Imiquimod (IMQ)-induced psoriasis-like dermal inflammation. The assay is classed as in vivo. The conditions noted are these: BALB/c mice. From the text: The anti-inflammatory activity of Compound A in the imiquimod (IMQ)-induced psoriasis-like dermal inflammation in BALB/c mice was investigated.
In assay [2] the test system is PBMCs from subjects with ulcerative colitis. Briefly: Pro-inflammatory cytokine expression in PBMCs from subjects with ulcerative colitis (cytometric bead array). The assay is classed as cell-based, human. The source says:
The anti-inflammatory effect of Compound A in PBMCs from subjects with ulcerative colitis was studied. The expression of pro-inflammatory cytokines IL-1β, IL 6, IL-8, IL-10 and TNF-α was investigated using a cytometric bead array (CBA).

Assay [3] has as its system house dust-induced atopic dermatitis. Briefly: House dust-induced atopic dermatitis model. The class given is in vivo, mice. From the text: The potential anti-inflammatory and anti-pruritic effects of Compound A were investigated in a house dust-induced atopic dermatitis model in mice.
Assay [4] deals with Collagen-Induced Arthritis. The experiment in a line: Collagen-Induced Arthritis Model. The conditions noted are these: 60 mg/kg once daily, vs vehicle only treated animals. The class given is in vivo, DBA/1 mice. The protocol:
Furthermore, the efficacy of Compound A in the Collagen-Induced Arthritis Model in DBA/1 mice was tested. Immunization with Type II Chicken Collagen led to the development of arthritis. In comparison with vehicle only treated animals, mice treated once daily with 60 mg/kg Compound A led to a reduction in arthritis index scores, paw measurements, and histopathology scores.

The test system of another assay is CD4+ T cells. The experiment in a line: Differentiation of CD4+ T cells (Th1, Th17, Treg). The class given is cell-based. The source says:
Th1 and Th17 cells are main players contributing to organ specific autoimmune disease and inflammation.

Setting [5] is: oral 30 mg/kg/day QD or BID x 21 days, in comparison with controls.

“Also recorded” adds a separate entry of the source.

Consider `CCNc1cc(Nc2ccc(C(=O)N3CCC(N4CCOCC4)CC3)cc2OC)nc2[nH]cc(C(F)(F)F)c12` [Compound A, (4-((4-(ethylamino)-3-(trifluoromethyl)-1H-pyrrolo[2,3-b]pyridin-6-yl)amino)-3-methoxyphenyl)(4-morpholinopiperidin-1-yl)methanone], for which, in assay [1] (45 mg/kg PO BID x 9 days), the “IMQ-induced psoriasis-like inflammation (ear swelling)” value is recorded as “significantly (p<0.05) protective effects”. Also, in assay [1] (60 mg/kg PO BID x 9 days), the “IMQ-induced psoriasis-like inflammation (ear swelling)” value was “significantly (p<0.05) protective effects”. Besides, the “expression of pro-inflammatory cytokines IL-1β, IL 6, IL-8, IL-10 and TNF-α” value in assay [2] is “reducing pro inflammatory cytokines in PBMCs; also recorded: statistically significant reduction”. Moreover, the “T cell subset levels in the skin (immunohistochemical staining)” value in assay [3] (in comparison with vehicle controls and the positive control abrocitinib) is recorded as “decreased all subset levels in the skin”. In addition, in assay [3] (setting [5]), the “IL-4 level in the skin” value is listed as “markedly reduced”, the “IL-13 level in the skin” value is given as “markedly reduced” and the “IL-17 level in the skin” value is reported as “markedly reduced”. Moreover, in assay [4], the arthritis index scores result is given as “reduction”, the histopathology scores entry is “reduction” and the paw measurements entry is “reduction”. Besides, in the assay on CD4+ T cells, the “development of Treg cells” value is reported as “enhanced the development of Treg cells; also recorded: enhancing the development of Treg cells”; the “differentiation of Th1 and Th17 cells” value is “inhibiting the differentiation of Th1 and Th17 cells; also recorded: inhibition of Th1 and Th7 cells”.

The values above are taken from patent US20250339442A1, “METHODS OF TREATMENT USING A DUAL SPECIFICITY TYROSINE-PHOSPHORYLATION-REGULATED KINASE 1A (DYRK1A) INHIBITOR” (Fresh Tracks Therapeutics, Inc., priority 2022, published 2025).
